This note sets out measurements from patent US20060217340A1, “Methods and products for treating hypertension by modulation of TRPC3 channel activity” (University of Vermont and State Agricultural College, priority 2005, published 2006).

The subject of one test is TRPC6. Kind of test: Western analysis of TRPC6 protein expression in arteries. The following applies: Angiotensin-II hypertensive rats; cerebral arteries. The test is classed as cell-based, rat. As to the method: (§1) Western Analysis. Arterial segments were homogenized in lysis buffer (5 minutes, 4° C.) containing (in mM): 40 CAPS, 1 DL-Dithiothreitol (DTT), 10 EDTA, 15 MgCl2, 115 NaCl, 1 NaOrthovanadate, 1 NaF, 2.5 Urea, and 0.25% deoxychlorate, 10% glycerol, 1% NP-40, 0.2% SDS, and 1:50 mammalian protease inhibitor cocktail (Sigma, St. Louis, Mo., USA). Equal amounts of sample protein were separated on a 10% polyacrylamide gel and transferred to a nitrocellulose membrane. The membranes were exposed to a TRPC3 or TRPC6 polyclonal antibody (anti-rabbit 1:200 dilution, Alomone Labs, Jerusalem, Israel) and a […] (GAPDH) monoclonal antibody (anti-mouse, 1:1000 dilution, Chemicon Labs, Temecula, Calif., USA). Alexa-Fluor 680® goat anti-rabbit (Molecular Probes, Eugene, Oreg., USA) and IRDyeTM800 anti-mouse (Rockland Immunochemicals, Gilbertsville, Pa., USA) were used to fluorescently label the TRPC3 and GAPDH antibodies respectively. The density of signals specific for the TRPC3 and GAPDH bands in a given lane on a membrane were measured after scanning the membrane with an Odyssey® infared imaging system (Li-COR Biosciences, Lincoln, Nebr., USA). Quantified amounts were normalized to a total protein amount lane on the polyacrylamide gel.
Oligodeoxynucleotide Sequences and Reverse Permeabilization. […]

Test [1] is described as follows: Blood pressure (MAP) by tailcuff. It counts as in vivo, rat. The following applies: 12 days subcutaneous osmotic pump, tailcuff just prior to euthanasia. As to the method:
Animals and tissues. Twelve- to 16-week old male Sprague-Dawley rats, spontaneously hypertensive rats (SHR), and Wistar-Kyoto rats ([…]) (Charles River Laboratories, St. Constant, Canada) were studied. All animal use procedures were in accordance with institutional guidelines and approved by the institutional Animal Care and Use Committee at the University of Vermont. Rats were euthanized with an injection of pentobarbitone (150 mg/kg ip) followed by exsanguination. The brain was removed and cerebellar and cerebral arteries (between 125 and 225 μm diameter) were dissected free in ice-cold MOPS-buffered saline solution containing (in mM): 3 MOPS, 145 NaCl, 5 KCl, 1 MgSO4.7H2O, 2.5 CaCl2, 1 KH2PO4, 0.02 EGTA, 2 pyruvate, 5 glucose and 1% bovine serum albumin (BSA) at pH 7.4. Angiotensin II or a control vehicle (physiological saline solution) was administered for 12 days using a subcutaneous osmotic pump. Blood pressures (MAP) were measured by tailcuff just prior to euthanasia and averaged 93±2 mm Hg in control rats and 146±5 mm Hg in Angiotensin II treated rats.

A further test concerns TRPC3. Kind of test: Western analysis of TRPC3 protein expression in arteries. To be noted: Angiotensin-II hypertensive rats; cerebral and mesenteric arteries. The test is classed as cell-based, rat. As to the method: as §1
Oligodeoxynucleotide Sequences and Reverse Permeabilization. TRPC6 sense and antisense oligodeoxynucleotides (ODN's) were designed as previously described (Welsh et al 2002 Circ Res 90, 248-250) and were as follows: sense, 5′-[…]-3′ (SEQ ID: 3) and 5′-GCACACGCAGCCTCTTCAC-3′ (SEQ ID: 4) antisense, 5′-[…]-3′ (SEQ ID: 5) and 5′-[…]-3′ (SEQ ID: 6). TRPC3 sense and antisense ODN's were designed based on the rat TRPC3 gene (Ohki et al 2000 J Biol Chem 275: 39055-39060) and are as follows: sense, 5′-[…]-3′ (SEQ ID: 7) and 5′-[…]-3′ (SEQ ID: 8); anti-sense, 5′-[…]-3′ (SEQ ID: 9) and 5′-[…]-3′ (SEQ ID: 10). The last five bases on the 5′ and 3′ end were phosphorothioated in order to limit ODN degradation. […]

“Angiotensin II (DRVYIHPF; Angiotensin-2; UniProt P01015 25-32, looked up)”: in the test on TRPC6, the “expression of TRPC6 versus normotensive controls” value was “increased expression”. Also, the “Blood pressure (MAP)” value in test [1] turned out to be 146±5 mm Hg. Moreover, in the test with TRPC3, the “expression of TRPC3 versus normotensive controls” value is given as “trends towards increased expression”.
